pIC50: −log10 of the molar value.

The subject of series [1] is MCF7. The series can be described thus: Breast Cancer Cell Proliferation Assay (MCF-7). Format: cell-based. To be noted: Homo sapiens, 120 h; MCF7 cells, 5 days of compound exposure, Cell Titer-Glo. As for the experimental part:
Breast Cancer Cell Proliferation Assay (MCF-7)
MCF7 was expanded and maintained in the medium (Phenol red free DMEM/F12 (Hyclone SH30272.01) NEAA (Gibco11140-050) Na-pyruvate (Gibco 11360-070) and Re-stripped Charcoal stripped FBS (Gemini 100-119)). The cells were adjusted to a concentration of 3,000 cells per mL in the above media, and the cells were incubated (37° C., 5% CO2). The following day a 10 point, serial dilution of compounds was added to the cells at a final concentration ranging from 10-0.000005 μM for test compounds (17β-estradiol was used as a control). Additional cells were plated in 30 wells to serve as the day 1 (pretreatment) comparison. After 5 days of compound exposure, Cell Titer-Glo reagent was added to the cells and the relative luminescence units (RLUs) of each well was determined. Cell Titer-Glo was also added to 32 μL of medium without cells to obtain a background value. The plates were allowed to incubate at room temperature for 10 minutes to stabilize luminescent signal and the luminescence signal was recorded with EnSpire. The relative increase in cell number of each sample is determined as follows: (RLU sample-RLU background/RLU estrogen only treated cells-RLU background)×100=% inhibition.
For orientation: ATP-based viability assays read luminescence as a measure of living cells.

The target of series [2] is T1, ERα (Homo sapiens, UniProt P03372).
T1 construct: endogenous in cells; host or cells: MCF-7
T1 sequence (P03372 1-595): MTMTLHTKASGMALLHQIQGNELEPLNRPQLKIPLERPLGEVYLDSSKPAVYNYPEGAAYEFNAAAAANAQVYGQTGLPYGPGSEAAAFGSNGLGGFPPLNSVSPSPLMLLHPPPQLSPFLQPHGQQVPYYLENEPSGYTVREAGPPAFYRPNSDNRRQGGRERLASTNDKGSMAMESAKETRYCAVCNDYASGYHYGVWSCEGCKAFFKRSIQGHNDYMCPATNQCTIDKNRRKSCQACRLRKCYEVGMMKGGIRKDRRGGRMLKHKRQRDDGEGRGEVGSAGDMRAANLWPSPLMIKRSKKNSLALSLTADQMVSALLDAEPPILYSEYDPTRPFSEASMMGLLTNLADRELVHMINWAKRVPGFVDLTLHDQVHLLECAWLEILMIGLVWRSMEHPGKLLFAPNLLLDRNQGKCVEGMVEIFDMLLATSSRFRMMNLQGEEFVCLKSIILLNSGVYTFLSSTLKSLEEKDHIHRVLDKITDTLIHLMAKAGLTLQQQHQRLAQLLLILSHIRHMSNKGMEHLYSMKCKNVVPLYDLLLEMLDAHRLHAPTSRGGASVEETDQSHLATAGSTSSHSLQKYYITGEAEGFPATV
Description: ER Degradation Determination by Western Blot. The format is cell-based. Particulars: MCF-7 cells, 10 μM, 18-24 hours. On the procedure: ER Degradation Determination by Western Blot
MCF-7 cells are plated at 0.3 million cells/mL (3 mL/well) in 6-well plates in experiment media and incubated at 37° C., 5% CO2 for […]. Next day, 10× solution of compounds are made in DMSO and added the solution to the cells to achieve a final concentration of 10 μM. A DMSO control is included to enable a determination of the relative efficacy of test compounds. Fulvestrant is used as a positive control for ER-alpha degradation, and 4-OH tamoxifen as a control for receptor stabilization. After incubating cells with compounds for 18-24 hours, cell lysates are prepared (2× Cell lysis buffer:100 mM Tris, pH 8, 300 mM NaCl, 2% NP40, 1% Na deoxycholate, 0.04% SDS, 2 mM EDTA) and mixed thoroughly and incubated on ice. The protein concentration is quantified using BCA kit. […] The gel was then transferred onto a nitrocellulose membrane. […] GAPDH protein was used as an internal control.

A short description of series [3]: Pharmacokinetic Determination (Rat PK). Format: in vivo. To be noted: plasma, female SD rats; for Vd: read-out: Vdss; for bioavailability: PO 10.0 mg/kg vs IV 3.0 mg/kg. On the procedure:
Example D Pharmacokinetic Determination
Grouping female SD rats weighing 200-300 g randomly to two groups; one group was administered with test compound at a dose of 3.0 mg/kg by intravenous injection, the other group was administered with test compound at a dose of 10.0 mg/kg by oral. The formulation for IV groups is DMSO/PEG400/150 mM glycine (pH 9) (5/10/85) and the formulation for PO groups is PEG400/PVP/Tween 80/0.5% CMC in water (9/0.5/0.5/90). After administering, blood samples of intravenous injection group were collected at time points of predose, 0.0833, 0.25, 0.5, 1, 2, 4, 8, 12 and 24 h; blood samples of oral group were collected at time points of predose, 0.25, 0.5, 1, 2, 4, 8, 12, and 24 h. Standard curve was plotted based on concentrations of the samples in a suitable range, the concentrations of test compounds in plasma samples were determined by using LC-MS/MS. Pharmacokinetic parameters were calculated according to drug concentration-time curve using a noncompartmental method by WinNonLin (Phoenix™, version 6.1) or other similar software.

The pIC50 is the IC50 on a negative log10 scale, so that one unit is a factor of ten. Read a high pIC50 as a small IC50. The term AUC(0-inf) denotes the area under the concentration-time curve extrapolated to infinity. A higher AUC(0-inf) goes with high exposure. By clearance is commonly meant the volume of plasma or blood freed of the substance per unit of time. A lower clearance goes with inefficient removal. Broadly, the half-life is how long it takes for the measured level to halve. Read a high half-life as slow decline. For orientation: Cmax means the highest concentration seen after dosing. The Tmax is the time from dosing to the highest level. Turning to `C[C@@H]1Cc2c([nH]c3ccccc23)[C@@H](c2c(F)cc(/C=C/C(=O)O)cc2F)N1CC12CC(C1)C2` [Example 5A, (E)-3-(4-((1R,3R)-2-(Bicyclo[1.1.1]pentan-1-ylmethyl)-3-methyl-2,3,4,9-tetrahydro-1H-pyrido[3,4-b]indol-1-yl)-3,5-difluorophenyl)acrylic acid], the pIC50 in series [1] is not below 7.60. Besides, the ERα % degradation entry in series [2] is on record as “A (A = ERα % degradation ≥80%)”. In series [3] (IV, 3.0 mg/kg), the AUC(0-inf) was 67 µM·h, the clearance is 1.7 mL/min/kg, the half-life was 462 min and the Vd was 1 L/kg. In addition, the bioavailability in series [3] came to 82%. Besides, in series [3] (PO, 10.0 mg/kg), the AUC(0-inf) was found to be 185 µM·h, the Cmax amounted to 10.8 µM, the Tmax worked out at 2 h and the half-life was 510 min.
`C[C@@H]1Cc2c([nH]c3ccccc23)[C@@H](c2c(F)cc(/C=C/C(=O)O)cc2F)N1CC(C)(C)F` [AZD9496, (E)-3-(3,5-Difluoro-4-((1R,3R)2-(2-fluoro-2-methylpropyl)-3-methyl-2,3,4,9-tetrahydro-1H-pyrido[3,4b]indol-1-yl)phenyl)acrylic acid, reference compound] gave a pIC50 in series [1] not below 7.60. For the same molecule, the ERα % degradation entry in series [2] was “A (A = ERα % degradation ≥80%)”. In addition, in series [3] (IV, 3.0 mg/kg), the AUC(0-inf) was determined as 72 µM·h, the clearance was found to be 1.6 mL/min/kg, the half-life is 468 min and the Vd came out at 0.8 L/kg. In addition, the bioavailability in series [3] amounted to 74%. Besides, in series [3] (PO, 10.0 mg/kg), the AUC(0-inf) was 179 µM·h, the Cmax worked out at 16.1 µM, the Tmax is 4 h and the half-life was 384 min.
On to `C[C@@H]1Cc2c([nH]c3ccccc23)[C@@H](c2c(F)cc(/C=C/C(=O)O)cc2F)N1CC12CC(F)(C1)C2` [Example 14A, (E)-3-(3,5-Difluoro-4-((1R,3R)-2-((3-fluorobicyclo[1.1.1]pentan-1-yl)methyl)-3-methyl-2,3,4,9-tetrahydro-H-pyrido[3,4-b]indol-1-yl)phenyl)acrylic acid], for which, in series [1], the negative logarithm of the IC50 (pIC50) is 6.60 to 7.60. Moreover, the ERα % degradation entry in series [2] is on record as “B (B = ERα % degradation <80%)”.
Taken in the same sequence, the figures for `C[C@@H]1Cc2c([nH]c3ccccc23)[C@@H](c2c(F)cc(/C=C/C(=O)O)cc2F)N1C1CC(F)(F)C1` (single isomer, unassigned) [Example 9A] were 6.60 to 7.60 and “A (A = ERα % degradation ≥80%)”.
In general, melting point refers to the temperature, or range, at which the solid turns liquid. `C[C@@H]1Cc2c([nH]c3ccc(F)cc23)[C@@H](c2c(F)cc(/C=C/C(=O)O)cc2F)N1CC(C)(C)F` [Example 21A, (E)-3-(3,5-Difluoro-4-((1R,3R)-6-fluoro-2-(2-fluoro-2-methylpropyl)-3-methyl-2,3,4,9-tetrahydro-1H-pyrido[3,4-b]indol-1-yl)phenyl)acrylic acid] had a melting point of 128 to 130 °C. Also, the pIC50 in series [1] was not below 7.60.
`C[C@@H]1Cc2c([nH]c3ccccc23)[C@@H](c2c(F)cc(/C=C/C(=O)O)cc2F)N1[C@H]1CCOC1` [Example 8A, (E)-3-(3,5-Difluoro-4-((1R,3R)-3-methyl-2-((S)-tetrahydrofuran-3-yl)-2,3,4,9-tetrahydro-1H-pyrido[3,4-b]indol-1-yl)phenyl)acrylic acid]: in series [1], the pIC50 is 6.60 to 7.60. Moreover, the ERα % degradation entry in series [2] is “A (A = ERα % degradation ≥80%)”. In series [3] (IV, 3.0 mg/kg), the AUC(0-inf) stood at 22 µM·h, the clearance worked out at 5.2 mL/min/kg, the half-life is 192 min and the Vd stood at 0.6 L/kg. In addition, in series [3], the bioavailability worked out at 109%. In series [3] (PO, 10.0 mg/kg), the AUC(0-inf) was 80 µM·h, the highest level (Cmax) was 24.5 µM, the Tmax was 0.5 h and the half-life is 126 min.
Molecule `C[C@@H]1Cc2c([nH]c3ccc(O)cc23)[C@@H](c2c(F)cc(/C=C/C(=O)O)cc2F)N1CC(C)(C)F` (single isomer, unassigned) [Example 13B] showed a pIC50 in series [1] not below 7.60. In addition, the ERα % degradation result in series [2] is “B (B = ERα % degradation <80%)”.
In series [1], `C[C@@H]1Cc2c([nH]c3ccccc23)[C@@H](c2c(F)cc(/C=C/C(=O)O)cc2F)N1C12CC(C1)C2` [Example 11A, (E)-3-(4-((1R,3R)-2-(Bicyclo[1.1.1]pentan-1-yl)-3-methyl-2,3,4,9-tetrahydro-1H-pyrido[3,4-b]indol-1-yl)-3,5-difluorophenyl)acrylic acid] gave a pIC50 not below 7.60. The ERα % degradation result in series [2] is on record as “A (A = ERα % degradation ≥80%)”. Moreover, in series [3] (IV, 3.0 mg/kg), the AUC(0-inf) stood at 96 µM·h, the clearance came to 1.2 mL/min/kg, the half-life is 252 min and the Vd turned out to be 0.48 L/kg. In addition, the bioavailability in series [3] amounted to 88%. In addition, in series [3] (PO, 10.0 mg/kg), the AUC(0-inf) stood at 283 µM·h, the Cmax stood at 33 µM and the half-life was 210 min.

The values are drawn from patent US11065234B2, “Estrogen receptor modulators” (Recurium IP Holdings, LLC, priority 2016, dated 2021).
